Reference: patent US20180200261A1, “METHODS AND MATERIALS FOR TREATING CANCER” (Mayo Foundation for Medical Education and Research, priority 2015, published 2018)

How the values were obtained:
OVCAR10 cells = test: PARP inhibitor sensitivity assay (colony formation), OVCAR10; assay type: cell-based; details: OVCAR10, JQ1 100 nM, OTX015 100 nM, i-BET-762 250 nM together with AZD2281 0-10 μM, 1 to 2 weeks, clones counted
Method: FIG. 3. […] OVCAR10 cells were plated in 6 well plates at a density of 500 cells/well. JQ1 (100 nM), OTX015 (100 nM), and i-BET-762 (250 nM) were added together with different concentrations of AZD2281 (0, 0.1, 1, or 10 μM). […] The cells were cultured for 1 to 2 weeks until clones were visible for counting.
Cells were plated in 6 well plates with at a density of 500 cells/well. BET inhibitors were added together with different concentrations of AZD2281 (0, 0.1, 1, or 10 μM), and the cells were cultured for 1 to 2 weeks until the colonies were visible for counting.

HeLa cells = test: Immunofluorescence of ionizing radiation induced foci (IRIF); assay type: cell-based; details: 250 nM JQ1, irradiated
Method: FIGS. 1A-B. BET inhibitor affects DNA repair efficiency. (A and B) HeLa cells treated with (JQ1) or without (CK) 250 nM JQ1 were irradiated (2 Gy) and probed with the indicated antibodies at different time points.
To visualize ionizing radiation induced foci (IRIF), cells were cultured on coverslips and treated with 5 Gy ionizing radiation (IR) followed by recovery as indicated. Cells were then washed in PBS, incubated in 3% paraformaldehyde for 15 minutes, and permeabilized in 0.5% Triton solution for 5 minutes at room temperature. Samples were blocked with 5% goat serum and then incubated with primary antibodies for 30 minutes. Samples were washed three times and incubated with secondary antibodies for 30 minutes. Cells were then stained with DAPI to visualize nuclear DNA. The coverslips were mounted onto glass slides with anti-fade solution and visualized using a Nikon eclipse 80i fluorescence microscope. The following antibodies were used in immunofluorescence: rH2Ax (Millipore) and Rad51 (GeneTex).
To check the effect of BET inhibitor in the DNA repair pathway, the foci of rH2Ax and RAD51 were examined (FIG. 1). rH2Ax is the marker of damaged DNA. RAD51 is an enzyme involved in homology recombination. Both proteins can form foci at damaged DNA sites.

Row | Compound | cell sensitivity to PARP inhibitor (OVCAR10 cells) | rH2Ax foci (rH2Ax positive cells) after IR (HeLa cells; 24 hours after IR) | RAD51 foci after IR (HeLa cells; different time points)
1 | CCNC(=O)C[C@@H]1N=C(c2ccc(Cl)cc2)c2cc(OC)ccc2-n2c(C)nnc21 [i-BET-762, (S)-2-(6-(4-chlorophenyl)-8-methoxy-1-methyl-4H-benzo[f][1,2,4]triazolo[4,3-a][1,4]diazepin-4-yl)-N-ethylacetamide] | affect cell sensitivity to PARP inhibitor |  | 
2 | Cc1sc2c(c1C)C(c1ccc(Cl)cc1)=N[C@@H](CC(=O)OC(C)(C)C)c1nnc(C)n1-2 [JQ1, (S)-tert-butyl 2-(4-(4-chlorophenyl)-2,3,9-trimethyl-6H-thieno[3,2-f][1,2,4]triazolo[4,3-a][1,4]diazepin-6-yl)acetate] | affect cell sensitivity to PARP inhibitor | sustained at high levels | affected RAD51 in a similar manner
3 | Cc1sc2c(c1C)C(c1ccc(Cl)cc1)=N[C@@H](CC(=O)Nc1ccc(O)cc1)c1nnc(C)n1-2 [OTX015, (6S)-4-(4-chlorophenyl)-N-(4-hydroxyphenyl)-2,3,9-trimethyl-6H-thieno[3,2-f][1,2,4]triazolo[4,3-a][1,4]diazepine-6-acetamide] | affect cell sensitivity to PARP inhibitor |  | 
